We go through 2 compounds from patent US9567326B2, “Pyrimidine compounds for the treatment of cancer” (THE UNIVERSITY OF NORTH CAROLINA AT CHAPEL HILL, priority 2012, dated 2017).

The assay deals with T1, Mer (Homo sapiens, UniProt Q12866).
T1 sequence (Q12866 21-999): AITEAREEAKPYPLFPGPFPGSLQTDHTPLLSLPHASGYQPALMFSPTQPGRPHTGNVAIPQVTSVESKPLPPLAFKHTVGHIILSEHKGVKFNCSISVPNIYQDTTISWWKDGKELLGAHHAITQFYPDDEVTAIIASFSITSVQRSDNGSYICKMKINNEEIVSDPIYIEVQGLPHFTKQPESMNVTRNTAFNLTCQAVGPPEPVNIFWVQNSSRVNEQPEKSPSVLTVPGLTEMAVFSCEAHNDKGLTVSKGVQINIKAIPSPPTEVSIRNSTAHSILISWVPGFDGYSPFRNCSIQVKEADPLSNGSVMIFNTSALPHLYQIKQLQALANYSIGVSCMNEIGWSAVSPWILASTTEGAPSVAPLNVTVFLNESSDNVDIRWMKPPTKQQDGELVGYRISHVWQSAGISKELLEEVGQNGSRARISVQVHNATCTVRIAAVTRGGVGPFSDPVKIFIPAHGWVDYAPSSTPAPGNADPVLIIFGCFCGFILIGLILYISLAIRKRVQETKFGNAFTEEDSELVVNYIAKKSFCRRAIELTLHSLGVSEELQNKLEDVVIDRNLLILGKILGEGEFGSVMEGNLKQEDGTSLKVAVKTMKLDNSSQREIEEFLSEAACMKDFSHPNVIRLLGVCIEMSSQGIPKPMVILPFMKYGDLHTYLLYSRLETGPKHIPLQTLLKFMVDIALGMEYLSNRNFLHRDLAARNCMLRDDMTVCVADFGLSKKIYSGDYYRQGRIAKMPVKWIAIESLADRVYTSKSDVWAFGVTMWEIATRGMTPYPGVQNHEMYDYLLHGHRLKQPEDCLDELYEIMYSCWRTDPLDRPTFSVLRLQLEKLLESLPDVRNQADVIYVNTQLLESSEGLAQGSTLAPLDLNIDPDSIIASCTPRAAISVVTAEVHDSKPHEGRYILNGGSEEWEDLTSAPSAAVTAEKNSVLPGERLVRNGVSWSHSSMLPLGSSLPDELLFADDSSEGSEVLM
The assay is described as follows: Mer IC50. The assay is classed as biochemical.

pIC50: −log10 of the molar value.

What is called pIC50 is the negative decadic logarithm of the IC50, by convention in mol/L. Read a low pIC50 as a large IC50. With `CCCCNc1ncc(-c2ccc(C(=O)NC3CCN(C(=O)OC(C)(C)C)CC3)cn2)c(NC2CCC(O)CC2)n1` (centres unmarked) [UNC1898A], the pIC50 (Table 3 (General Procedure C compounds)) was over 8.00. Take `CCCCNc1ncc(-c2cncc(N)n2)c(N[C@H]2CC[C@H](O)CC2)n1` [UNC3118A]: for the setting “Table 7 (General Procedure G compounds)”, the pIC50 was over 8.00.
